PubChem BioAssay (NCI)
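Test compounds were applied to cells in 96-well plates for 48 hours at 5 doses. At the GI50, growth is halved. TGI: total growth inhibition.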

Assays:
Assay in all cases: inhibition of tumour cell growth, NCI panel, 48 h
SNB-75 CNS = test system: SNB-75 CNS
NCI-H226 lung = test system: NCI-H226 lung
HOP-62 NSCLC = test system: HOP-62 NSCLC
HCT-15 colon = test system: HCT-15 colon
M14 melanoma = test system: M14 melanoma
MALME-3M melanoma = test system: MALME-3M melanoma
OVCAR-4 ovarian = test system: OVCAR-4 ovarian
NCI-H23 lung = test system: NCI-H23 lung
SNB-19 CNS = test system: SNB-19 CNS

Structure (SMILES)	TGI (SNB-75 CNS) [µM]	TGI (NCI-H226 lung) [µM]	TGI (HOP-62 NSCLC) [µM]	TGI (HCT-15 colon) [µM]	TGI (M14 melanoma) [µM]	TGI (MALME-3M melanoma) [µM]	TGI (OVCAR-4 ovarian) [µM]	TGI (NCI-H23 lung) [µM]	TGI (SNB-19 CNS) [µM]	GI50 (SNB-75 CNS) [µM]	GI50 (HOP-62 NSCLC) [µM]	GI50 (HCT-15 colon) [µM]	GI50 (M14 melanoma) [µM]	GI50 (OVCAR-4 ovarian) [µM]	GI50 (NCI-H23 lung) [µM]	GI50 (SNB-19 CNS) [µM]
COc1cc2cc(OC)c3cc4c(cc3c2c(OC)c1OC)OCO4	> 46.1	> 100	> 100	> 51.1	> 62.1	> 100	> 100	> 81.2	> 100	–	–	–	–	–	–	–
Cc1c(C(=O)CC(=O)C(=O)Nc2ccccc2C(F)(F)F)[n+](=O)c2ccccc2n1[O-]	–	> 100	> 100	44.4	39	37.1	42	44.3	> 100	–	–	–	–	–	–	–
CNS(=O)(=O)NNS(=O)(=O)c1ccccc1	> 100	> 100	> 100	> 100	> 100	> 100	–	> 100	> 100	–	–	–	–	–	–	–
NC1=NCCC1(c1ccccc1)c1ccccn1 (configuration not stated)	> 100	> 100	> 100	> 100	> 100	> 100	> 100	> 100	> 100	–	–	–	–	–	–	–
O=C(CCc1nc(=S)[nH][nH]1)Nc1cc(Cl)c(Cl)cc1Cl	> 100	> 100	> 100	> 100	> 100	> 100	> 100	> 100	> 100	–	–	–	–	–	–	–
NC(=O)NO.O.O.O.O.O.O.O.O.O.O.O.[Ge].[Ge].[Ge].[Ge].[Ge].[O]=[Ge].[O]=[Ge].[O]=[Ge].[O]=[Ge].[O]=[Ge][OH]	> 100	> 100	> 100	> 100	> 89	> 100	> 100	> 100	> 100	–	–	–	–	–	–	–
CCCCCCCCCCCC(=O)OCCOCCOCCOCCOCCOCc1ccccc1	> 100	> 100	> 100	> 100	> 100	> 100	> 100	> 100	> 100	–	–	–	–	–	–	–
CCOC(=O)C(C)(C)Oc1ccc2c(-c3ccccc3)cc(=O)oc2c1	56.5	87.4	63.7	> 100	> 100	73.6	> 100	> 100	> 100	–	–	–	–	–	–	–
CN(C)N=Nc1ccc(C(N)=O)cc1	> 100	> 100	> 100	> 100	> 100	> 100	> 100	> 100	> 100	–	–	–	–	–	–	–
Clc1ccccc1C(SCc1ccccc1)SCc1ccccc1	> 100	> 100	> 100	> 100	> 100	> 100	> 100	> 100	> 100	–	–	–	–	–	–	–
O=C(O)CCNCCCNCCC(=O)O	> 100	> 100	> 100	> 100	> 100	> 100	> 100	> 100	> 100	–	–	–	–	–	–	–
COc1cc2ccnc([C@@H](OC(=O)c3ccccc3)c3ccc(OC)c(OC)c3OC)c2cc1OC	> 100	> 100	–	> 100	> 100	99.8	> 100	> 100	> 100	–	–	–	–	–	–	–
C1=C2/CC[C@H](Sc3ccccc3)C2C2(CCCCC/1)OCCO2 (some centres not stated)	88.2	60.4	58.2	–	–	55.2	–	63.3	> 100	–	–	–	–	–	–	–
CCC[CH2][Sn]([CH2]CCC)([S]c1cccc2cccnc12)[S]c1cccc2cccnc12	0.926	–	2.79	0.411	0.339	–	0.307	0.422	1.39	0.234	0.355	0.176	0.175	0.135	0.161	0.373
CCn1c(C)nn2c(=O)c3ccccc3nc2c1=O	> 100	–	> 100	> 100	> 100	> 100	> 100	> 100	–	–	–	–	–	–	–	–
Nc1ccccc1S(=O)(=O)N(CC(=O)O)c1ccccc1	> 100	–	–	> 100	> 100	> 100	> 100	> 100	> 100	–	–	–	–	–	–	–
Cc1nc2c(ccc3ncccc32)[nH]1	> 100	–	> 100	> 100	> 100	> 100	> 100	> 100	> 100	–	–	–	–	–	–	–
CC(C)=CCC\C(C)=C/C=C/C(C)=C\C=C\C(C)=C/C=C/C=C(C)\C=C\C=C(C)/C=C/C=C(/C)CCC=C(C)C	> 100	> 100	> 100	> 100	> 100	> 100	> 100	–	> 100	–	–	–	–	–	–	–
CC1(C)C(=O)/C=C\C(=O)C(C)(C)C2=CC=C(O2)C(C)(C)C(=O)/C=C\C(=O)C(C)(C)C2=CC=C1O2	–	> 100	> 100	> 100	–	> 100	> 100	> 100	> 100	–	–	–	–	–	–	–
CCOC(=O)CCC1(C(=O)OCC)CCCCC1=O (configuration not stated)	> 100	–	> 100	–	–	> 100	–	> 100	> 100	–	–	–	–	–	–	–
